Source: publication PMC7468911 (Nutrients, 2020)

Biological target: T1, ABCC11 (Homo sapiens, UniProt Q96J66)
T1 construct: full-length human ABCC11 WT
Test: biochemical
Design: Vesicle transport assay: ATP-dependent uptake of radiolabeled DHEA-S into ABCC11-expressing membrane vesicles, rapid filtration, scintillation counting
Details: ABCC11-mediated DHEA-S transport, % of control, 5 min, 37 °C
Source text: The inhibitory effects of the various target extracts and compounds on the ABCC11 function were examined using the in vitro vesicle transport assay, a well-established method to quantitatively evaluate ABC transporter function. For this purpose, the ATP-dependent transport of [1,2,6,7-^3H(N)]-dehydroepiandrosterone sulfate (DHEA-S) (PerkinElmer, Waltham, MA, USA), which is an ABCC11 substrate, into the ABCC11-expressing and control plasma membrane vesicles was quantified following our previous study with some minor modifications in the rapid filtration technique, as described below. In brief, the plasma membrane vesicles (0.25 mg/mL or indicated concentrations) were incubated with [1,2,6,7-^3H(N)]-DHEA-S (100 nM or indicated concentrations) in a reaction mixture (total 20 μL: 10 mM Tris/HCl, 250 mM sucrose, 10 mM MgCl2, 10 mM creatine phosphate, 1 mg/mL creatine phosphokinase, 50 mM ATP or AMP as a substitute of ATP, and pH 7.4) for 5 min at 37 °C, either without (i.e., with only vehicle control) or with the individual target fractions/authentic chemicals at the indicated concentrations. As the vehicle control, 1% water was used for plant extracts; 1% methanol (Nacalai Tesque) or 1% dimethyl sulfoxide (DMSO; Nacalai Tesque) was used for the individual target fractions, as described below. Since stock solutions of authentic chemicals were prepared with DMSO at 10 mM, 1% DMSO was employed as the vehicle control for them. After incubation, the reaction mixture was mixed with 980 μL of an ice-cold stop buffer (2 mM EDTA, 0.25 M sucrose, 0.1 M NaCl, 10 mM Tris-HCl, and pH 7.4) and rapidly filtered on a membrane filter (MF-Millipore Membrane (HAWP02500; Millipore, Tokyo, Japan) for extract screening or Whatman™ Grade GF/F Glass Microfiber Filter Paper (GE Healthcare) for the other experiments). After washing with 5 mL of the ice-cold stop buffer three times, the plasma membrane vesicles trapped on the membrane filter were dissolved in Clear-sol II (Nacalai Tesque). Then, the radioactivity incorporated into the plasma membrane vesicles was measured with a liquid scintillator (Tri-Carb 3110TR; PerkinElmer). The transport activity in each group was calculated as the incorporated clearance (μL/mg protein/min = incorporated level of DHEA-S (disintegrations per minute (DPM)/mg protein/min)/DHEA-S level in the incubation mixture (DPM/μL)). ATP-dependent DHEA-S transport was calculated by the difference in transport activity with and without ATP. Similarly, ABCC11-mediated DHEA-S transport activity was calculated by subtracting the ATP-dependent DHEA-S transport activity of control plasma membrane vesicles from that of ABCC11-expressing ones. Unless otherwise indicated, effects of the target fractions/compounds on the ATP-dependent DHEA-S transport activity were also examined for the control plasma membrane vesicles.

T1 sequence (Q96J66 whole entry): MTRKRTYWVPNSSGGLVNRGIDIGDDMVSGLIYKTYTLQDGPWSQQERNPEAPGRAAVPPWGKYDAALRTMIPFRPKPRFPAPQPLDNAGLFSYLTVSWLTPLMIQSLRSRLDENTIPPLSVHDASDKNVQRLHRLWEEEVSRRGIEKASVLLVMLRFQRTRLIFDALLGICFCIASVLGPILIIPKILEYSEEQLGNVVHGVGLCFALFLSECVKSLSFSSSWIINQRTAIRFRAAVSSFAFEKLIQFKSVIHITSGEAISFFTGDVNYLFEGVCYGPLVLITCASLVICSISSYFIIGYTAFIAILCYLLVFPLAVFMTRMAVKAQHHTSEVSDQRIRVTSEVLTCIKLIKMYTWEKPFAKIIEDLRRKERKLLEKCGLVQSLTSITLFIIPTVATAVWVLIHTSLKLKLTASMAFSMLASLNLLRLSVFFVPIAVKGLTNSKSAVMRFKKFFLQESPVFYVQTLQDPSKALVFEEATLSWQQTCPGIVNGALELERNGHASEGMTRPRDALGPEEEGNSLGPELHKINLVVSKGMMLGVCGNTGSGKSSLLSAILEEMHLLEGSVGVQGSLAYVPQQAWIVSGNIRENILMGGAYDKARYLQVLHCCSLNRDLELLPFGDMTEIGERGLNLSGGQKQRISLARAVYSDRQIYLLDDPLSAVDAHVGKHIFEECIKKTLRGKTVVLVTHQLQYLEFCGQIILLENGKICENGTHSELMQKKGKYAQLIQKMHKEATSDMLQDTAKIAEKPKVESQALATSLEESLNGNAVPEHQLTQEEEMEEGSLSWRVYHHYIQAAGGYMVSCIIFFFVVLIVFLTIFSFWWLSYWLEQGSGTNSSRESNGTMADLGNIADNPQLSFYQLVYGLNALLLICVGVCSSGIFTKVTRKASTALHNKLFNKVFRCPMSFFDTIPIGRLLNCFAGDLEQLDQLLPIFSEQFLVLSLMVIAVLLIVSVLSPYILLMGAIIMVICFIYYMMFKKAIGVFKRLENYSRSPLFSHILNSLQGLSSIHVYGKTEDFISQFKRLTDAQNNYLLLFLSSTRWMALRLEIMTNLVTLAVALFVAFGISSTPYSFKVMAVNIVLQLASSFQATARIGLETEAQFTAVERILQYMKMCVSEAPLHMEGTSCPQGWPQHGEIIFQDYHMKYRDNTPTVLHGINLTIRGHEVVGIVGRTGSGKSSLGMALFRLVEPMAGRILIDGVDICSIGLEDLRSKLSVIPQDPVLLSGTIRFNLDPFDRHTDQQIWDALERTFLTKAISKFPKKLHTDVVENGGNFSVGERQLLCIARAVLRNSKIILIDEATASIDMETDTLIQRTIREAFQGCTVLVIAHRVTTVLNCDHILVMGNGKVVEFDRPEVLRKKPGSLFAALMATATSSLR

| remaining activity at 100 µM | SMILES |
| --- | --- |
| 91.9 ± 5.9% | Oc1cc(O)c2c(c1)O[C@H](c1ccc(O)c(O)c1)[C@@H](O)C2 [(+)-Catechin] |
| 85.2 ± 24.4% | Oc1cc(O)c2c(c1)O[C@H](c1ccc(O)c(O)c1)[C@H](O)C2 [(−)-Epicatechin] |
| 25.3 ± 12.5% | O=c1cc(-c2ccc(O)cc2)oc2cc(O)cc(O)c12 [Apigenin] |
| 73.4 ± 10.8% | COc1cc(O)cc(O)c1C(=O)/C=C/c1ccccc1 [Cardamonin] |
| 56.9 ± 23.4% | O=C1c2c(O)cc(O)cc2O[C@H](c2cc(O)c(O)c(O)c2)[C@H]1O [Dihydromyricetin] |
| 37.7 ± 1% | O=c1c(O)c(-c2ccc(O)c(O)c2)oc2cc(O)ccc12 [Fisetin] |
| 63.6 ± 5.9% | O=c1c(O)c(-c2ccccc2)oc2cc(O)cc(O)c12 [Galangin] |
| 5.2 ± 26.9% | COc1ccc([C@@H]2CC(=O)c3c(O)cc(O)cc3O2)cc1O [Hesperetin] |
| 42.8 ± 1% | O=c1c(O)c(-c2ccc(O)cc2)oc2cc(O)cc(O)c12 [Kaempferol] |
| 41.5 ± 3.4% | O=c1c(O)c(-c2ccc(O)cc2O)oc2cc(O)cc(O)c12 [Morin] |
| 43.2 ± 26% | O=C1c2c(O)cc(O)cc2O[C@H](c2ccc(O)c(O)c2)[C@H]1O [Taxifolin] |
| 19.7 ± 13.6% | COc1cc(O)c(CC=C(C)C)c(O)c1C(=O)/C=C/c1ccc(O)cc1 [Xanthohumol] |

| SMILES | remaining activity at 100 µM |
| --- | --- |
| O=c1c(O)c(-c2ccccc2)oc2ccccc12 [3-Hydroxyflavone] | 91.7 ± 1.1% |
| Oc1cc(O)c2c(c1)O[C@H](c1cc(O)c(O)c(O)c1)[C@@H](O)C2 [(+)-Gallocatechin] | 87.6 ± 27.6% |
| O=C(O[C@@H]1Cc2c(O)cc(O)cc2O[C@@H]1c1cc(O)c(O)c(O)c1)c1cc(O)c(O)c(O)c1 [(−)-Epigallocatechin gallate] | 37.5 ± 7% |
| Oc1cc(O)c2c(c1)O[C@H](c1cc(O)c(O)c(O)c1)[C@H](O)C2 [(−)-Epigallocatechin] | 83.6 ± 29% |
| O=C(O[C@@H]1Cc2c(O)cc(O)cc2O[C@H]1c1cc(O)c(O)c(O)c1)c1cc(O)c(O)c(O)c1 [(−)-Gallocatechin gallate] | 24 ± 2.5% |
| O=c1c(O)c(-c2ccc(O)c(O)c2)oc2c(O)c(O)cc(O)c12 [Gossypetin] | 46 ± 8.4% |
| O=C1C[C@@H](c2ccc(O)cc2)Oc2cc(O)cc(O)c21 [Naringenin] | 38.4 ± 31.6% |
| O=c1c(O)c(-c2ccc(O)c(O)c2)oc2cc(O)cc(O)c12 [Quercetin] | 34.6 ± 18.3% |

Biological target: T1, ABCC11
Test: inhibition of ATP-dependent [3H]-DHEA-S transport in plasma membrane vesicles from ABCC11-expressing […] cells
Format: biochemical
Details: not given

| IC50 | SMILES |
| --- | --- |
| 61.5 µM | O=c1c(-c2ccc(O)cc2)coc2cc(O)cc(O)c12 [genistein] |

Biological target: T1, ABCC11
Test: cell-based
Details: read-out: ABCC11-Mediated DHEA-S Transport (% of Control)

| SMILES | remaining activity at 100 µM |
| --- | --- |
| O=c1cc(-c2ccc(O)c(O)c2)oc2cc(O)cc(O)c12 [compound 4, luteolin] | 0% |
| COc1ccc(-c2cc(=O)c3c(OC)c(OC)c(OC)c(OC)c3o2)cc1OC [compound 5, nobiletin] | 0% |
| O=c1c(O)c(-c2ccc(O)c(O)c2)oc2cc(O)c(O)c(O)c12 [compound 16, quercetagetin] | 0% |
| O=C(/C=C/c1ccc(O)cc1)c1c(O)cc(O)cc1O [compound 19, naringenin chalcone] | 12.4 ± 4.2% |
| O=C(CCc1ccc(O)cc1)c1c(O)cc(O)cc1O [compound 20, phloretin] | 0.6 ± 3.9% |
| O=C(O[C@@H]1Cc2c(O)cc(O)cc2O[C@H]1c1ccc(O)c(O)c1)c1cc(O)c(O)c(O)c1 [compound 23, (−)-catechin gallate] | 10.5 ± 6% |
